Test system: FLAP (5-lipoxygenase activating protein)
Assay: In vitro binding test: displacement of [3H]-7-chloro-3-(5-((3-fluoropyridin-2-yl)methoxy)-2-methylphenyl)-3,4-dihydroquinazolin-2(1H)-one from Sf9 microsome fractions
Parameters: species or system human and mouse
Details: Sf9 microsome fractions expressing FLAP; 100% = radioligand binding with 10 μM sodium 3-(3-(tert-butylsulfanyl)-1-(4-chlorobenzyl)-5-isopropyl-1H-indol-2-yl)-2,2-dimethylpropanoate, 0% = DMSO; test compound concentration not given
Procedure, shortened: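 Sf9 microsomes expressing human or mouse FLAP (2 μg/mL) preincubated with compound 10 min at room temperature, then 120 nM tritiated quinazolinone ligand added for 60 min; buffer 100 mM Tris-HCl pH 7.5 with NaCl, EDTA, DTT, glycerol, Tween20. Bound ligand filtered and counted by scintillation; 10 μM indole propanoate defines 100% inhibition, DMSO 0%.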

| Compound | inhibitory rate (%) |
| --- | --- |
| O=C1Nc2cc(-c3ccn[nH]3)nc(C3CC3)c2CN1c1cc2c(cc1Cl)CCC(c1ncccc1F)O2 (stereo not shown) [Example 115, 3-(6-chloro-2-(3-fluoropyridin-2-yl)-3,4-dihydro-2H-chromen-7-yl)-5-cyclopropyl-7-(1H-pyrazol-5-yl)-3,4-dihydropyrido[4,3-d]pyrimidin-2(1H)-one] | 106 |
| O=C(O)c1cc2c(c(C3CC3)n1)CN(c1cc3c(cc1Cl)CCC(c1ncccc1F)O3)C(=O)N2 (stereo not shown) [Example 71, 3-(6-chloro-2-(3-fluoropyridin-2-yl)-3,4-dihydro-2H-chromen-7-yl)-5-cyclopropyl-2-oxo-1,2,3,4-tetrahydropyrido[4,3-d]pyrimidine-7-carboxylic acid] | 107 |
| Cc1cc2c(cc1N1Cc3c(Cl)ccnc3NC1=O)OC(c1ncccc1F)CC2 (stereo not shown) [Example 36, 5-chloro-3-(2-(3-fluoropyridin-2-yl)-6-methyl-3,4-dihydro-2H-chromen-7-yl)-3,4-dihydropyrido[2,3-d]pyrimidin-2(1H)-one] | 115 |
| O=C1Nc2cc(CO)nc(C3CC3)c2CN1c1cc2c(cc1Cl)CCC(c1ncccc1F)O2 (stereo not shown) [Example 73, 3-(6-chloro-2-(3-fluoropyridin-2-yl)-3,4-dihydro-2H-chromen-7-yl)-5-cyclopropyl-7-(hydroxymethyl)-3,4-dihydropyrido[4,3-d]pyrimidin-2(1H)-one] | 109 |
| Cc1ccc(OCc2ncccc2F)cc1-n1c(=O)[nH]c2cc(N)ccc2c1=O [Example 348, 7-amino-3-(5-((3-fluoropyridin-2-yl)methoxy)-2-methylphenyl)quinazoline-2,4(1H,3H)-dione] | 101 |
| Cc1ccc(OCc2cccc(F)c2F)cc1N1Cc2ccc(C(C)(C)O)cc2NC1=O [Example 203, 3-(5-((2,3-difluorobenzyl)oxy)-2-methylphenyl)-7-(2-hydroxypropan-2-yl)-3,4-dihydroquinazolin-2(1H)-one] | 81 |
| Cc1ccc(OCc2ncccc2F)cc1-n1c(=O)[nH]c2cc([N+](=O)[O-])ccc2c1=O [Example 341, 3-(5-((3-fluoropyridin-2-yl)methoxy)-2-methylphenyl)-7-nitroquinazoline-2,4(1H,3H)-dione] | 102 |
| Cc1ccc(OCc2ncccc2F)cc1-n1c(=O)[nH]c2c(OCC3CC3)cccc2c1=O [Example 353, 8-(cyclopropylmethoxy)-3-(5-((3-fluoropyridin-2-yl)methoxy)-2-methylphenyl)quinazoline-2,4(1H,3H)-dione] | 106 |
| O=C1Nc2cc(-c3cn[nH]c3)nc(C3CC3)c2CN1c1cc2c(cc1Cl)CCC(c1ncccc1F)O2 (stereo not shown) [Example 116, 3-(6-chloro-2-(3-fluoropyridin-2-yl)-3,4-dihydro-2H-chromen-7-yl)-5-cyclopropyl-7-(1H-pyrazol-4-yl)-3,4-dihydropyrido[4,3-d]pyrimidin-2(1H)-one] | 102 |
| Cc1cc2c(cc1N1Cc3c(Cl)cc(C(=O)NC4CC4)cc3NC1=O)OC(c1ncccc1F)CC2 (stereo not shown) [Example 82, 5-chloro-N-cyclopropyl-3-(2-(3-fluoropyridin-2-yl)-6-methyl-3,4-dihydro-2H-chromen-7-yl)-2-oxo-1,2,3,4-tetrahydroquinazoline-7-carboxamide] | 101 |
| Cc1ccc(OCc2ncccc2F)cc1N1Cc2c(Br)cncc2NC1=O [Example 315, 5-bromo-3-(5-((3-fluoropyridin-2-yl)methoxy)-2-methylphenyl)-3,4-dihydropyrido[3,4-d]pyrimidin-2(1H)-one] | 103 |
| Cc1cc2c(cc1N1Cc3c(Cl)cnc(-c4ccoc4)c3NC1=O)OC(c1ncccc1F)CC2 (stereo not shown) [Example 164, 5-chloro-3-(2-(3-fluoropyridin-2-yl)-6-methyl-3,4-dihydro-2H-chromen-7-yl)-8-(3-furyl)-3,4-dihydropyrido[3,4-d]pyrimidin-2(1H)-one] | 102 |
| Cc1cc(I)c(OCc2ncccc2F)cc1N1Cc2ccc(Cl)cc2NC1=O [Example 304, 7-chloro-3-(5-((3-fluoropyridin-2-yl)methoxy)-4-iodo-2-methylphenyl)-3,4-dihydroquinazolin-2(1H)-one] | 64 |
| Cc1cc2c(cc1N1Cc3c(Cl)cnc(-c4c(C)nn(C)c4C)c3NC1=O)OC(c1ncccc1F)CC2 (single isomer, unassigned; (+)) [Example 14, (+)-5-chloro-3-(2-(3-fluoropyridin-2-yl)-6-methyl-3,4-dihydro-2H-chromen-7-yl)-8-(1,3,5-trimethyl-1H-pyrazol-4-yl)-3,4-dihydropyrido[3,4-d]pyrimidin-2(1H)-one] | 105 |
| Cc1ccc(OCc2c(F)cccc2F)cc1N1Cc2ccc(C(=O)NS(C)(=O)=O)cc2NC1=O [Example 209, 3-(5-((2,6-difluorobenzyl)oxy)-2-methylphenyl)-N-(methylsulfonyl)-2-oxo-1,2,3,4-tetrahydroquinazoline-7-carboxamide] | 102 |
| COc1ncc(Cl)c2c1NC(=O)N(c1cc3c(cc1Cl)CCC(c1ncccc1F)O3)C2 (stereo not shown) [Example 80, 5-chloro-3-(6-chloro-2-(3-fluoropyridin-2-yl)-3,4-dihydro-2H-chromen-7-yl)-8-methoxy-3,4-dihydropyrido[3,4-d]pyrimidin-2(1H)-one] | 107 |
| O=C1Nc2cc(CO)ccc2CN1c1cc(OCc2c(F)cccc2F)ccc1CCc1ccccc1 [Example 257, 3-(5-((2,6-difluorobenzyl)oxy)-2-(2-phenylethyl)phenyl)-7-(hydroxymethyl)-3,4-dihydroquinazolin-2(1H)-one] | 97 |
| O=C1Nc2cc(=O)[nH]c(C3CC3)c2CN1c1cc2c(cc1Cl)CCC(c1ncccc1F)O2 (stereo not shown) [Example 17, 3-(6-chloro-2-(3-fluoropyridin-2-yl)-3,4-dihydro-2H-chromen-7-yl)-5-cyclopropyl-4,6-dihydropyrido[4,3-d]pyrimidine-2,7(1H,3H)-dione] | 110 |
| Cc1ccc(OCc2ncccc2F)cc1N1Cc2c(Cl)cc(C(=O)NC3CC3)cc2NC1=O [Example 299, 5-chloro-N-cyclopropyl-3-(5-((3-fluoropyridin-2-yl)methoxy)-2-methylphenyl)-2-oxo-1,2,3,4-tetrahydroquinazoline-7-carboxamide] | 113 |
| O=C(c1cc2c(c(C3CC3)n1)CN(c1cc3c(cc1Cl)CCC(c1ncccc1F)O3)C(=O)N2)N1CCOCC1 (stereo not shown) [Example 74, 3-(6-chloro-2-(3-fluoropyridin-2-yl)-3,4-dihydro-2H-chromen-7-yl)-5-cyclopropyl-7-(morpholin-4-ylcarbonyl)-3,4-dihydropyrido[4,3-d]pyrimidin-2(1H)-one] | 104 |
| Cc1ccc(OCc2ncccc2F)cc1N1Cc2c(Cl)cccc2N(C)C1=O [Example 291, 5-chloro-3-(5-((3-fluoropyridin-2-yl)methoxy)-2-methylphenyl)-1-methyl-3,4-dihydroquinazolin-2(1H)-one] | 94 |
| O=C1Nc2cc(-c3noc(=O)[nH]3)nc(C3CC3)c2CN1c1cc2c(cc1Cl)CCC(c1ncccc1F)O2 (stereo not shown) [Example 103, 3-(6-chloro-2-(3-fluoropyridin-2-yl)-3,4-dihydro-2H-chromen-7-yl)-5-cyclopropyl-7-(5-oxo-4,5-dihydro-1,2,4-oxadiazol-3-yl)-3,4-dihydropyrido[4,3-d]pyrimidin-2(1H)-one] | 94 |

— US20150299188A1, “HETEROCYCLIC COMPOUND” (priority 2012, published 2015)
